Results: PMC12345137 (mBio, 2025)
Where “and” joins values, the source holds several entries; their conditions need not be identical. Equal entries are not always repeated. Where two headings read alike, the source gives them in different places. Positions of bridges follow the written chain, without caps; N, C: chain ends. Residues, ends and D or L forms follow the SMILES beside them.

Key:
S. aureus (SA) agr-III [1] = details: b-lactamase, cited from earlier work
S. aureus (SA) agr-I [2] = details: fluorescence; ref (5); cited from earlier work
S. aureus (SA) agr-II [3] = test system: S. aureus (SA) agr-II; set-up: method as in ref (5) (a number printed in a supplementary file, which may have a reference list of its own: not looked up in the article's list); details: hemolysis; ref (5); cited from earlier work
[4] = test system: S. epidermidis (SE) agr-I; details: fluorescence, cited from earlier work
S. aureus (SA) agr-I [5] = test system: S. aureus (SA) agr-I; set-up: method as in ref (5) (a number printed in a supplementary file, which may have a reference list of its own: not looked up in the article's list); details: hemolysis; ref (5); cited from earlier work
S. aureus (SA) agr-IV [6] = details: b-lactamase, cited from earlier work
SA AgrC-III [7] = target: T1, SA AgrC-III (Staphylococcus aureus, UniProt O33590); details: ± SEM, determined previously, ref (1), cited from earlier work; for IC50: 100 nM cognate AIP
T1 sequence (O33590 entry or part of it): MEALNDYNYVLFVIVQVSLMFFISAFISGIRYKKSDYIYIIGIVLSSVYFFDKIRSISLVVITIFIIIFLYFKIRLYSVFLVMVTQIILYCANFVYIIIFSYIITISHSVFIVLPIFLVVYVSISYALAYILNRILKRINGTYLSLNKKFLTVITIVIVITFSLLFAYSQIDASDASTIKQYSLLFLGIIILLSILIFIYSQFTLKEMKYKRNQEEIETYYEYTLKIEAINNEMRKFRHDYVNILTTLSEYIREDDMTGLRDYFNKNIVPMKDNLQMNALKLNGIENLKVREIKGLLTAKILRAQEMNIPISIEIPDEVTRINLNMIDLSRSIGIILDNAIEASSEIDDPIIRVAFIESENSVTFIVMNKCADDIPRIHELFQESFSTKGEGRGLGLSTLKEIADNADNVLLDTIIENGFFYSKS

[8] = test system: S. epidermidis (SE) agr-I; set-up: method as in ref (9) (a number printed in a supplementary file, which may have a reference list of its own: not looked up in the article's list); details: HPLC d-toxin, ref (9); cited from earlier work
SA AgrC-II [9] = target: T2, SA AgrC-II (Staphylococcus aureus, UniProt O33587); details: ± SEM, determined previously, ref (1), cited from earlier work; for IC50: 100 nM cognate AIP, -b = no inhibition recorded at the highest AIP concentration tested, read-out: IC50, SA AgrC-II, b-lactamase assay
T2 sequence (O33587 entry or part of it): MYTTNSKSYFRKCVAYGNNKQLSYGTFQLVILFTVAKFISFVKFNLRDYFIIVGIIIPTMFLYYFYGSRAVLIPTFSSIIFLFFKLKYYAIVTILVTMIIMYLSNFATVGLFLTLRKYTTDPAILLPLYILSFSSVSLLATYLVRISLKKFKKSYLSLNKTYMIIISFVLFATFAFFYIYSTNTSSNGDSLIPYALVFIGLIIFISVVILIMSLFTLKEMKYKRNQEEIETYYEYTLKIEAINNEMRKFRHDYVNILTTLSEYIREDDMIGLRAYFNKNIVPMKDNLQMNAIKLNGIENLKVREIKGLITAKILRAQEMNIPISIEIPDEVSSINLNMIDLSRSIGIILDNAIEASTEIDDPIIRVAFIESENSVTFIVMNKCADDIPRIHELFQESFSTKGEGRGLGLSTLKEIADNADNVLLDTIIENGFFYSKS

S. aureus (SA) agr-IV [10] = test system: S. aureus (SA) agr-IV; set-up: method as in ref (5) (a number printed in a supplementary file, which may have a reference list of its own: not looked up in the article's list); details: hemolysis; ref (5); cited from earlier work
SA AgrC-I = SA AgrC-I (Staphylococcus aureus, UniProt O07911); details: ± SEM, determined previously, ref (1), cited from earlier work; for IC50: 100 nM cognate AIP, -b = no inhibition recorded at the highest AIP concentration tested, read-out: IC50, SA AgrC-I, b-lactamase assay
Sequence of SA AgrC-I (O07911 entry or part of it): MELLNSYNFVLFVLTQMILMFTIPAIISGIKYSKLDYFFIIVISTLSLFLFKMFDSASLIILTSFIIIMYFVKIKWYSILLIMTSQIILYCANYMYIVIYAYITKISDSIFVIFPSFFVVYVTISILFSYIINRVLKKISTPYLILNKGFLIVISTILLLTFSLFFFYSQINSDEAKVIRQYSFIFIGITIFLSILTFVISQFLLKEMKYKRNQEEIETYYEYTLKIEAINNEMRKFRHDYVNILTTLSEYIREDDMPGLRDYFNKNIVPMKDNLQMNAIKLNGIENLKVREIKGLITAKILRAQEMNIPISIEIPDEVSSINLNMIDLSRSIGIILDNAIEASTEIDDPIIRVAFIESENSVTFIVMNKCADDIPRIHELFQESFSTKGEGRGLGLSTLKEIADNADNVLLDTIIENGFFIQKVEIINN

SA AgrC-IV [11] = target: T3, SA AgrC-IV (Staphylococcus aureus, UniProt Q309Z2); details: ± SEM, determined previously, ref (1), cited from earlier work; for IC50: 100 nM cognate AIP, -b = no inhibition recorded at the highest AIP concentration tested, read-out: IC50, SA AgrC-IV, b-lactamase assay
T3 sequence (Q309Z2 entry or part of it): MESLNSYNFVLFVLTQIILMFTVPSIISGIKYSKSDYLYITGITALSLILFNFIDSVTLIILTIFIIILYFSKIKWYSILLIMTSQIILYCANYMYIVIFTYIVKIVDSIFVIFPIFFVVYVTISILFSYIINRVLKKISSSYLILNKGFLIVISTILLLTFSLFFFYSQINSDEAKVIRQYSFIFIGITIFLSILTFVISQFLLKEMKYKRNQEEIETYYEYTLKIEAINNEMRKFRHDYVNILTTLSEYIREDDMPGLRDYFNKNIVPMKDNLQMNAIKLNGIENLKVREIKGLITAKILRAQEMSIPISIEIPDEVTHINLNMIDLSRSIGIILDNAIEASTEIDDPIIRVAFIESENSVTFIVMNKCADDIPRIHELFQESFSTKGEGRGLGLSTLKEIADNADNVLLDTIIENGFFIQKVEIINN

S. aureus (SA) agr-II [12] = details: b-lactamase, cited from earlier work
S. aureus (SA) agr-I [13] = details: b-lactamase, cited from earlier work
S. aureus (SA) agr-III [14] = details: fluorescence, cited from earlier work
S. aureus (SA) agr-IV [15] = details: fluorescence, cited from earlier work
S. aureus (SA) agr-III [16] = test system: S. aureus (SA) agr-III; set-up: method as in ref (5) (a number printed in a supplementary file, which may have a reference list of its own: not looked up in the article's list); details: hemolysis; ref (5); cited from earlier work
S. aureus (SA) agr-II [17] = details: fluorescence, cited from earlier work
S. aureus (SA) agr-III [18] = test system: S. aureus (SA) agr-III; set-up: method as in ref (9) (a number printed in a supplementary file, which may have a reference list of its own: not looked up in the article's list); details: HPLC d-toxin; ref (9); cited from earlier work
S. aureus (SA) agr-I [19] = test system: S. aureus (SA) agr-I; set-up: method as in ref (9) (a number printed in a supplementary file, which may have a reference list of its own: not looked up in the article's list); details: HPLC d-toxin; ref (9); cited from earlier work
S. aureus (SA) agr-IV [20] = test system: S. aureus (SA) agr-IV; set-up: method as in ref (9) (a number printed in a supplementary file, which may have a reference list of its own: not looked up in the article's list); details: HPLC d-toxin, ref (9); cited from earlier work
SA AgrC-II [21] = target: T2, SA AgrC-II; test: β-Lactamase assay, reporter strain RN10829 (P2-agrA:P3-blaZ) with pagrC-II; type: cell-based; details: 100 nM cognate AIP; ± SEM; -b = no inhibition recorded at the highest AIP concentration tested; -a = only partial inhibition observed; this study (curves in Fig. S20)
How it was run: (§1)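 S. aureus RN10829 P2-agrA:P3-blaZ reporter carrying a plasmid for the matching wild-type AgrC, grown in TSB to OD600 0.35–0.40. Cells met peptides (10 μM–10 pM) plus cognate AIP at 100 nM for 1 h at 37°C, then nitrocefin (33.3 μg/mL) turnover was read at OD486 for 10 min; IC50 from linear rates.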

S. aureus (SA) agr-II [22] = test system: S. aureus (SA) agr-II; set-up: method as in ref (9) (a number printed in a supplementary file, which may have a reference list of its own: not looked up in the article's list); details: HPLC d-toxin; ref (9); cited from earlier work
SA AgrC-III [23] = target: T1, SA AgrC-III; test: β-Lactamase assay, reporter strain RN10829 (P2-agrA:P3-blaZ) with pagrC-III; type: cell-based
How it was run: as §1

[24] = test system: S. epidermidis (SE) agr-III; details: fluorescence; from supernatant; ref (18); cited from earlier work
[25] = test system: S. epidermidis (SE) agr-II; details: fluorescence; from supernatant; ref (18); cited from earlier work
S. lugdunensis agr-I = S. lugdunensis agr-I (Staphylococcus lugdunensis, UniProt Q8VSW5); test: cell-based; details: fluorescent reporter strain; peptides tested at 1000, 50, 2.5, 0.125 nM or in dose-response
Sequence of S. lugdunensis agr-I (Q8VSW5 entry or part of it): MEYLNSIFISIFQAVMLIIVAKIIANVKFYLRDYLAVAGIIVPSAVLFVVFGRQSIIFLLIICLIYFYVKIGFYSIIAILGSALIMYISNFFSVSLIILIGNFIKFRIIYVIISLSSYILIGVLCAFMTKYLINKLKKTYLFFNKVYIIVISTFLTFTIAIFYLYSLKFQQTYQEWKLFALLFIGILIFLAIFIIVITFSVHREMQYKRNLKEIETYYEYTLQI
How it was run: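 Fluorescence of the agr-driven P3 reporter, read after 22–24 h of growth with peptide at 37°C, was corrected for medium background and divided by OD600. Activity is given relative to wells without peptide, and IC50 values were fitted by non-linear regression with variable slope.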

S. aureus agr-II = S. aureus agr-II (Staphylococcus aureus, UniProt O33587); test: cell-based
Sequence of S. aureus agr-II (O33587 entry or part of it): as the sequence (O33587 entry or part of it) above
How it was run: (§2)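 Staphylococcal agr reporters were grown with peptide for 22–24 h at 37°C. Background-corrected fluorescence per OD600 was expressed as a percentage of untreated control, and IC50 was obtained by variable-slope regression.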

S. aureus agr-IV = S. aureus agr-IV (Staphylococcus aureus, UniProt Q309Z2); test: cell-based; type: cell-based; details: fluorescent reporter strain; peptides tested at 1000, 50, 2.5, 0.125 nM or in dose-response
Sequence of S. aureus agr-IV (Q309Z2 entry or part of it): as the sequence (Q309Z2 entry or part of it) above
How it was run: as §2

S. epidermidis agr-III = S. epidermidis agr-III (Staphylococcus epidermidis, UniProt Q8VSX2); test: cell-based; type: cell-based
Sequence of S. epidermidis agr-III (Q8VSX2 entry or part of it): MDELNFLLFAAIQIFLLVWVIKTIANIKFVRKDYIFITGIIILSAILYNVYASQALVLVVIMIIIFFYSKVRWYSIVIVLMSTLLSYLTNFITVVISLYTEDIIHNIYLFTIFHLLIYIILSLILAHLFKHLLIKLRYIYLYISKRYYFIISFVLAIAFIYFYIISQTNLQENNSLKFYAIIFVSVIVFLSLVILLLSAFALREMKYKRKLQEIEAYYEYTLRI
How it was run: as §2

SA AgrC-IV [26] = target: T3, SA AgrC-IV; test: β-Lactamase assay, reporter strain RN10829 (P2-agrA:P3-blaZ) with pagrC-IV; type: cell-based; details: 100 nM cognate AIP; ± SEM; -b = no inhibition recorded at the highest AIP concentration tested; -a = only partial inhibition observed; this study (curves in Fig. S22)
How it was run: as §1

S. aureus AIP-III [compound 3]
EC50 (S. aureus (SA) agr-III [1]; ref (4)): 26 nM
EC50 (S. aureus (SA) agr-III [1]; ref (7)): 406 nM
IC50 (S. aureus (SA) agr-I [2]): 5.05 nM
IC50 (S. aureus (SA) agr-II [3]): 0.46 nM
inhibition at 1000 nM, SE agr-I ([4]; at 1000 nM, ref (11)): no inhibition
IC50 (S. aureus (SA) agr-I [5]): 8.07 nM
IC50 (S. aureus (SA) agr-IV [6]; ref (4)): 150 nM
EC50 (SA AgrC-III [7]; read-out: EC50, SA AgrC-III, b-lactamase assay): 11 ± 1 nM
inhibition at 1000 nM, SE agr-I [8]: no inhibition
IC50 (SA AgrC-II [9]): 150 ± 63 nM
IC50 (S. aureus (SA) agr-IV [10]): 23.8 nM
IC50 (SA AgrC-I): 120 ± 15 nM
IC50 (SA AgrC-IV [11]): > 1000 nM
IC50 (S. aureus (SA) agr-II [12]; ref (4)): 6 nM
IC50 (S. aureus (SA) agr-I [13]; ref (4)): 70 nM
IC50 (S. aureus (SA) agr-I [13]; ref (8)): 8 ± 1.1 nM

S. aureus AIP-II [compound 2]
IC50 (S. aureus (SA) agr-III [1]; ref (2)): 3.2 ± 1.3 nM
IC50 (S. aureus (SA) agr-III [1]; ref (4)): 1 nM
IC50 (S. aureus (SA) agr-I [2]): 1.62 nM
IC50 ([4]; ref (11)): 62.9 nM
IC50 (S. aureus (SA) agr-I [5]): 0.89 nM
IC50 (S. aureus (SA) agr-III [14]; ref (5)): 0.53 nM
IC50 (S. aureus (SA) agr-IV [6]; ref (4)): 86 nM
IC50 (SA AgrC-III [7]; -b = no inhibition recorded at the highest AIP concentration tested, read-out: IC50, SA AgrC-III, b-lactamase assay): 40 ± 15 nM
inhibition at 1000 nM, SE agr-I [8]: no inhibition
EC50 (SA AgrC-II [9]; read-out: EC50, SA AgrC-II, b-lactamase assay): 3.7 ± 0.5 nM
IC50 (S. aureus (SA) agr-IV [10]): 1.19 nM
IC50 (S. aureus (SA) agr-IV [15]; ref (5)): 0.4 nM
IC50 (S. aureus (SA) agr-III [16]): 3.59 nM
IC50 (SA AgrC-I): 110 ± 12 nM
IC50 (SA AgrC-IV [11]): 230 ± 19 nM
EC50 (S. aureus (SA) agr-II [12]; ref (3)): 34 nM and 28 nM
EC50 (S. aureus (SA) agr-II [12]; ref (4)): 30 nM
EC50 (S. aureus (SA) agr-II [12]; ref (7)): 40.9 nM
IC50 (S. aureus (SA) agr-I [13]; ref (2)): 2.9 ± 1.2 nM
IC50 (S. aureus (SA) agr-I [13]; ref (3)): 90 nM and 78 nM
IC50 (S. aureus (SA) agr-I [13]; ref (4)): 40 nM
IC50 (S. aureus (SA) agr-I [13]; ref (8)): 12 ± 2.9 nM

S. aureus AIP-IV [compound 4]
IC50 (S. aureus (SA) agr-III [1]; ref (4)): 1 nM
IC50 (S. aureus (SA) agr-II [3]): 0.09 nM
IC50 ([4]; ref (11)): > 1000 nM
IC50 (S. aureus (SA) agr-II [17]; ref (5)): 0.37 nM
IC50 (S. aureus (SA) agr-III [14]; ref (5)): 0.46 nM
EC50 (S. aureus (SA) agr-IV [6]; ref (4)): 13 nM
EC50 (S. aureus (SA) agr-IV [6]; ref (7)): 7.9 nM
IC50 (SA AgrC-III [7]; only partial inhibition observed, read-out: IC50, SA AgrC-III, b-lactamase assay, only partial inhibition observed (footnote a)): 9.8 ± 0.2 nM
inhibition at 1000 nM, SE agr-I [8]: 40%
IC50 (SA AgrC-II [9]): 47 ± 9 nM
IC50 (S. aureus (SA) agr-III [16]): 1.49 nM
EC50 (SA AgrC-I; read-out: EC50, SA AgrC-I, b-lactamase assay): 59 ± 2 nM
EC50 (SA AgrC-IV [11]; read-out: EC50, SA AgrC-IV, b-lactamase assay): 2.6 ± 0.2 nM
IC50 (S. aureus (SA) agr-II [12]; ref (4)): 4 nM
EC50 (S. aureus (SA) agr-I [13]; ref (4)): 62 nM

CC(C)[C@H](NC(=O)[C@H](CO)NC(=O)[C@@H](N)CC(=O)O)C(=O)N[C@H]1CSC(=O)[C@H](Cc2ccccc2)NC(=O)[C@H](Cc2ccc(O)cc2)NC(=O)[C@H](CO)NC(=O)[C@H](C)NC1=O [compound 5, S. epidermidis AIP-I] (H-DSVCASYF; thioester 4-C)
IC50 (S. aureus (SA) agr-III [18]): ~10 nM
IC50 (S. aureus (SA) agr-I [19]): ~250 nM
effect from supernatant (% inhibition, activation or no effect), SE agr-I ([4]; from supernatant, ref (18)): activation
EC50 ([4]; ref (11)): 196 nM
inhibition at 1000 nM, SA agr-IV (S. aureus (SA) agr-IV [20]): no inhibition
IC50 (S. aureus (SA) agr-II [17]; ref (10)): > 1000 nM
IC50, SA AgrC-II, b-lactamase assay (SA AgrC-II [21]): -b
IC50 (S. aureus (SA) agr-III [14]; ref (10)): 13 nM
IC50 (S. aureus (SA) agr-II [22]): 30 to 40 nM
IC50 (SA AgrC-III [23]): > 1000 nM
effect from supernatant (% inhibition, activation or no effect), SE agr-III [24]: ~ 90%
effect from supernatant (% inhibition, activation or no effect), SE agr-II [25]: ~ 90%
QS interaction in words (inhibition / activation), S. lugdunensis agr-I (S. lugdunensis agr-I): no effect at 1000 nM
IC50 (S. aureus agr-II): 858 nM
IC50 (S. aureus (SA) agr-IV [15]; ref (10)): > 1000 nM
QS interaction in words (inhibition / activation), S. aureus agr-IV (S. aureus agr-IV): no effect at 1000 nM
IC50 (S. epidermidis agr-III): 8.6 ± 0.7 nM
IC50, SA AgrC-IV, b-lactamase assay (SA AgrC-IV [26]): -b
